These results are taken from US10501460B2, “Heterocyclic compounds and uses thereof” (Plexxikon Inc., priority 2013, dated 2019).

In one experiment the test system is bromodomain. Kind of experiment: Bromodomain cell assays of Example 40 (at least one of them). The conditions noted are these: in at least one of the bromodomain cell assays described in Example 40. It counts as cell-based. The gist of the method:
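Growth inhibition: 3000 MV-4-11, MOLM-13, MM.1S or neuroblastoma cells/well got an 8-point 1:3 series from 10 μM top (0.2% DMSO) for 72 h, then CellTiter-Glo luminescence. Myc reporter: MV-4-11 with E-box firefly luciferase, 24 h exposure, One-Glo luminescence plus CellTiter-Fluo cell count. pIC50 from four-parameter fit.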

In another experiment the test system is MV-4-11. Kind of experiment: Oncology cell growth assay MV-4-11 (CellTiter Glo, 72 hours). The class given is cell-based. To be noted: Homo sapiens, MV4-11, 72 h; MV-4-11 cell growth inhibitory activity, 3d. The procedure, abridged:
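MV-4-11 cells (MLL-AF4 AML) exposed 72 h to 8-point 1:3 titration, top final 10 μM, 0.2% DMSO. CellTiter Glo luminescence as cell-number readout, normalized to DMSO controls; pIC50 from four-parameter fit.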

As to `Cc1noc(C)c1-c1cnc2[nH]cc([S+]([O-])c3cccc(F)c3)c2c1` (stereo not drawn) [P-0142, 4-[3-(3-fluorophenyl)sulfinyl-1H-pyrrolo[2,3-b]pyridin-5-yl]-3,5-dimethyl-isoxazole], the IC50 in the experiment on bromodomain was < 10 µM; in the experiment with MV-4-11, 1 to 10 µM.

In the case of `Cc1noc(C)c1-c1cnc2[nH]cc(S(=O)(=O)c3cccc(F)c3)c2c1` [P-0143, 4-[3-(3-fluorophenyl)sulfonyl-1H-pyrrolo[2,3-b]pyridin-5-yl]-3,5-dimethyl-isoxazole], the IC50 with bromodomain is < 10 µM; with MV-4-11, ≤ 1 µM.

In the case of `Cc1noc(C)c1-c1cnc2[nH]cc(Sc3ccccc3)c2c1` [P-0144, 3,5-dimethyl-4-(3-phenylsulfanyl-1H-pyrrolo[2,3-b]pyridin-5-yl)isoxazole], the IC50 is < 10 µM in the experiment on bromodomain and 1 to 10 µM in the experiment with MV-4-11.

Consider `Cc1noc(C)c1-c1cnc2[nH]cc(S(=O)(=O)c3ccccc3)c2c1` [P-0145, 4-[3-(benzenesulfonyl)-1H-pyrrolo[2,3-b]pyridin-5-yl]-3,5-dimethyl-isoxazole], for which the values for the IC50 with bromodomain and with MV-4-11 were < 10 µM and ≤ 1 µM, respectively.

Regarding `Cc1noc(C)c1-c1cnc2c(-c3cnn(CC(F)(F)F)c3)cn(S(=O)(=O)c3ccccc3)c2c1` [P-0146, 4-[1-(benzenesulfonyl)-3-[1-(2,2,2-trifluoroethyl)pyrazol-4-yl]pyrrolo[3,2-b]pyridin-6-yl]-3,5-dimethyl-isoxazole], the figures for the IC50 in the experiment with bromodomain and with MV-4-11 were < 10 µM and ≤ 1 µM, respectively.

With `COCCn1cc(-c2cn(S(=O)(=O)c3ccccc3)c3cc(-c4c(C)noc4C)cnc23)cn1` [P-0147, 4-[1-(benzenesulfonyl)-3-[1-(2-methoxyethyl)pyrazol-4-yl]pyrrolo[3,2-b]pyridin-6-yl]-3,5-dimethyl-isoxazole], the IC50 in the experiment with bromodomain was < 10 µM; in the experiment with MV-4-11 it was ≤ 1 µM.

Consider `Cc1noc(C)c1-c1cnc2c(-c3cnn(C4CCOC4)c3)cn(S(=O)(=O)c3ccccc3)c2c1` (stereo not drawn) [P-0148, 4-[1-(benzenesulfonyl)-3-(1-tetrahydrofuran-3-ylpyrazol-4-yl)pyrrolo[3,2-b]pyridin-6-yl]-3,5-dimethyl-isoxazole], for which the values for the IC50 in the experiment with bromodomain and in the experiment on MV-4-11 were < 10 µM and ≤ 1 µM, respectively.

For the molecule `Cc1noc(C)c1-c1cnc2c(-c3cnn(CC(F)(F)F)c3)cn(S(=O)(=O)C3CCCC3)c2c1` [P-0149, 4-[1-cyclopentylsulfonyl-3-[1-(2,2,2-trifluoroethyl)pyrazol-4-yl]pyrrolo[3,2-b]pyridin-6-yl]-3,5-dimethyl-isoxazole], the IC50 in the experiment with bromodomain was < 10 µM; in the experiment with MV-4-11 it was ≤ 1 µM.

As for `CCCS(=O)(=O)n1cc(-c2cnn(CC(F)(F)F)c2)c2ncc(-c3c(C)noc3C)cc21` [P-0150, 3,5-dimethyl-4-[1-propylsulfonyl-3-[1-(2,2,2-trifluoroethyl)pyrazol-4-yl]pyrrolo[3,2-b]pyridin-6-yl]isoxazole], the IC50 was < 10 µM with bromodomain and ≤ 1 µM in the experiment on MV-4-11.

As to `COCCn1cc(-c2cn(S(=O)(=O)C3CCCC3)c3cc(-c4c(C)noc4C)cnc23)cn1` [P-0151, 4-[1-cyclopentylsulfonyl-3-[1-(2-methoxyethyl)pyrazol-4-yl]pyrrolo[3,2-b]pyridin-6-yl]-3,5-dimethyl-isoxazole], the IC50 was < 10 µM in the experiment on bromodomain and ≤ 1 µM with MV-4-11.

As for `CCCS(=O)(=O)n1cc(-c2cnn(CCOC)c2)c2ncc(-c3c(C)noc3C)cc21` [P-0152, 4-[3-[l-(2-methoxyethyl)pyrazol-4-yl]-1-propylsulfonyl-pyrrolo [3,2-b]pyridin-6-yl]-3,5-dimethyl-isoxazole], the results for the IC50 in the experiment with bromodomain and in the experiment with MV-4-11 were < 10 µM and ≤ 1 µM, respectively.

Consider `Cc1noc(C)c1-c1cnc2c(-c3cnn(C4CCOC4)c3)cn(S(=O)(=O)C3CCCC3)c2c1` (stereo not drawn) [P-0153, 4-[1-cyclopentylsulfonyl-3-(1-tetrahydrofuran-3-ylpyrazol-4-yl)pyrrolo [3,2-b]pyridin-6-yl]-3,5-dimethyl-isoxazole], for which the figures for the IC50 in the experiment on bromodomain and in the experiment on MV-4-11 were < 10 µM and ≤ 1 µM, respectively.

As to `CCCS(=O)(=O)n1cc(-c2cnn(C3CCOC3)c2)c2ncc(-c3c(C)noc3C)cc21` (stereo not drawn) [P-0154, 3,5-dimethyl-4-[1-propylsulfonyl-3-(1-tetrahydrofuran-3-ylpyrazol-4-yl)pyrrolo [3,2-b]pyridin-6-yl] isoxazole], the IC50 in the experiment on bromodomain was < 10 µM; in the experiment on MV-4-11, ≤ 1 µM.

For the molecule `Cc1noc(C)c1-c1cnc2c(C#CCO)cn(S(=O)(=O)C3CCCC3)c2c1` [P-0156, 3-[1-cyclopentylsulfonyl-6-(3,5-dimethylisoxazol-4-yl)pyrrolo[3,2-b]pyridin-3-yl]prop-2-yn-1-ol], the values for the IC50 in the experiment on bromodomain and with MV-4-11 were < 10 µM and ≤ 1 µM, respectively.

`Cc1noc(C)c1-c1cnc2c(C#CCF)cn(S(=O)(=O)C3CCCC3)c2c1` [P-0158, 4-[1-cyclopentylsulfonyl-3-(3-fluoroprop-1-ynyl)pyrrolo[3,2-b]pyridin-6-yl]-3,5-dimethyl-isoxazole]: the IC50 in the experiment with bromodomain was < 10 µM; with MV-4-11, ≤ 1 µM.

For `Cc1noc(C)c1-c1cnc2ccn(C(C)c3ccccc3)c2c1` (stereo not drawn) [P-0159, 3,5-dimethyl-4-[1-(1-phenylethyl)pyrrolo[3,2-b]pyridin-6-yl]isoxazole], the IC50 in the experiment with bromodomain is < 10 µM; in the experiment on MV-4-11 it was ≤ 1 µM.

As for `C=CCn1cc(-c2cn(Cc3ccccc3)c3cc(-c4c(C)noc4C)cnc23)cn1` [P-0160, 4-[3-(1-allylpyrazol-4-yl)-1-benzyl-pyrrolo[3,2-b]pyridin-6-yl]-3,5-dimethyl-isoxazole], the IC50 in the experiment on bromodomain is < 10 µM; in the experiment on MV-4-11, ≤ 1 µM.

On to `Cc1noc(C)c1-c1cnc2c(-c3cnn(C)c3)cn(C(C)c3ccccc3)c2c1` (stereo not drawn) [P-0161, 3,5-dimethyl-4-[3-(1-methylpyrazol-4-yl)-1-(1-phenylethyl)pyrrolo[3,2-b]pyridin-6-yl]isoxazole], for which the IC50 in the experiment with bromodomain was < 10 µM; in the experiment on MV-4-11, ≤ 1 µM.

As for `Cc1noc(C)c1-c1cnc2c(-c3cn[nH]c3)cn(S(=O)(=O)c3ccccc3)c2c1` [P-0163, 4-[1-(benzenesulfonyl)-3-(1H-pyrazol-4-yl)pyrrolo[3,2-b]pyridin-6-yl]-3,5-dimethyl-isoxazole], the IC50 with bromodomain is < 10 µM; in the experiment on MV-4-11 it was ≤ 1 µM.

In the case of `Cc1noc(C)c1-c1cnc2[nH]cc(P(C)(=O)c3ccccc3)c2c1` (stereo not drawn) [P-0165, 3,5-dimethyl-4-[3-[methyl(phenyl)phosphoryl]-1H-pyrrolo[2,3-b]pyridin-5-yl]isoxazole], the IC50 with bromodomain was < 10 µM; with MV-4-11, ≤ 1 µM.

For `Cc1noc(C)c1-c1cnc2c(-c3cn[nH]c3)cn(S(=O)(=O)C3CCCC3)c2c1` [P-0167, 4-[1-cyclopentylsulfonyl-3-(1H-pyrazol-4-yl)pyrrolo[3,2-b]pyridin-6-yl]-3,5-dimethyl-isoxazole], the IC50 in the experiment with bromodomain was < 10 µM; with MV-4-11 it was ≤ 1 µM.

For `Cc1noc(C)c1-c1cnc2c(-c3cnn(C4CCCCO4)c3)cn(S(=O)(=O)c3ccccc3)c2c1` (stereo not drawn) [P-0168, 4-[1-(benzenesulfonyl)-3-(1-tetrahydropyran-2-ylpyrazol-4-yl)pyrrolo[3,2-b]pyridin-6-yl]-3,5-dimethyl-isoxazole], the IC50 with bromodomain was < 10 µM; with MV-4-11, ≤ 1 µM.

Regarding `Cc1nc(Cn2cc(-c3cnn(C)c3)c3ncc(-c4c(C)noc4C)cc32)cs1` [P-0170, 3,5-dimethyl-4-[3-(1-methylpyrazol-4-yl)-1-[(2-methylthiazol-4-yl)methyl]pyrrolo[3,2-b]pyridin-6-yl]isoxazole], the IC50 in the experiment on bromodomain was < 10 µM; in the experiment on MV-4-11, ≤ 1 µM.

For the molecule `Cc1noc(C)c1-c1cnc2c(-c3cnn(C)c3)cn(Cc3cscn3)c2c1` [P-0171, 3,5-dimethyl-4-[3-(1-methylpyrazol-4-yl)-1-(thiazol-4-ylmethyl)pyrrolo[3,2-b]pyridin-6-yl]isoxazole], the IC50 is < 10 µM in the experiment with bromodomain and ≤ 1 µM in the experiment on MV-4-11.

For the molecule `Cc1noc(C)c1-c1cnc2c(-c3cnn(C)c3)cn(Cc3ccccc3F)c2c1` [P-0172, 4-[1-[(2-fluorophenyl)methyl]-3-(1-methylpyrazol-4-yl)pyrrolo[3,2-b]pyridin-6-yl]-3,5-dimethyl-isoxazole], the IC50 is < 10 µM in the experiment with bromodomain and ≤ 1 µM in the experiment with MV-4-11.

Regarding `Cc1noc(C)c1-c1cnc2c(-c3cnn(C)c3)cn(Cc3c(F)cccc3F)c2c1` [P-0173, 4-[1-[(2,6-difluorophenyl)methyl]-3-(1-methylpyrazol-4-yl)pyrrolo[3,2-b]pyridin-6-yl]-3,5-dimethyl-isoxazole], the figures for the IC50 in the experiment with bromodomain and in the experiment with MV-4-11 were < 10 µM and ≤ 1 µM, respectively.

Consider `Cc1noc(C)c1-c1cnc2c(-c3cnn(C(F)F)c3)cn(Cc3ccccc3F)c2c1` [P-0176, 4-[3-[1-(difluoromethyl)pyrazol-4-yl]-1-[(2-fluorophenyl)methyl]pyrrolo[3,2-b]pyridin-6-yl]-3,5-dimethyl-isoxazole], for which the results for the IC50 with bromodomain and in the experiment on MV-4-11 were < 10 µM and ≤ 1 µM, respectively.

Turning to `Cc1noc(C)c1-c1cnc2c(c1)c(S(=O)(=O)c1ccccc1)cn2-c1cnn(C)c1` [P-0185, 4-[3-(benzenesulfonyl)-1-(1-methylpyrazol-4-yl)pyrrolo[2,3-b]pyridin-5-yl]-3,5-dimethyl-isoxazole], the IC50 is < 10 µM in the experiment on bromodomain and ≤ 1 µM in the experiment with MV-4-11.

Consider `CCOC(=O)C(c1ccccc1)n1cc(-c2cnn(C)c2)c2ncc(-c3c(C)noc3C)cc21` (stereo not drawn) [P-0186, ethyl 2-[6-(3,5-dimethylisoxazol-4-yl)-3-(1-methylpyrazol-4-yl)pyrrolo[3,2-b]pyridin-1-yl]-2-phenyl-acetate], for which the IC50 in the experiment with bromodomain was < 10 µM; in the experiment on MV-4-11, ≤ 1 µM.

For the molecule `Cc1noc(C)c1-c1cnc2c(-c3cnn(C)c3)cn(C(CF)c3ccccc3)c2c1` (stereo not drawn) [P-0187, 4-[1-(2-fluoro-1-phenyl-ethyl)-3-(1-methylpyrazol-4-yl)pyrrolo[3,2-b]pyridin-6-yl]-3,5-dimethyl-isoxazole], the results for the IC50 in the experiment on bromodomain and with MV-4-11 were < 10 µM and ≤ 1 µM, respectively.
